Where a SMILES comes first, the peptide text is derived from it. Bridges are numbered along the chain shown (N, C = ends). [ ]: non-standard residue; d: D form. Aib = CC(C)(N)C(=O)O
How the values were obtained:
Assay type in all cases: cell-based
glucagon receptor = target: T1, glucagon receptor (Homo sapiens, UniProt P47871); assay: cAMP synthesis functional assay (firefly luciferase reporter in HEK293 cells), glucagon receptor; conditions: Table 1; for Glucagon Receptor relative activity: relative to the native hormone of the indicated receptor; for EC50: Glucagon Receptor EC50, nM
T1 construct: expressed in transfected cells; host or cells: HEK293
T1 sequence (P47871 26-477): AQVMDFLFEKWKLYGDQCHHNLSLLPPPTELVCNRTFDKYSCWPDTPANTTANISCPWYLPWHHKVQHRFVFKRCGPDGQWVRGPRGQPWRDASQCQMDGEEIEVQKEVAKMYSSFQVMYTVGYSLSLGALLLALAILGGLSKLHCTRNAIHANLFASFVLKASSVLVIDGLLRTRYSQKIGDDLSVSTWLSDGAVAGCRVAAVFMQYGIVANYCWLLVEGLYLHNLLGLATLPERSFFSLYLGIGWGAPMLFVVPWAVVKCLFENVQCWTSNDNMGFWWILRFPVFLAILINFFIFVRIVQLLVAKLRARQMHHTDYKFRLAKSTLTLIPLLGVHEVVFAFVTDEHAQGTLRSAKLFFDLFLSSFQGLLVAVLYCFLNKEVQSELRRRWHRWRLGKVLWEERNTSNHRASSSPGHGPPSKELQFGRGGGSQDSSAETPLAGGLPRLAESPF

GIP receptor = target: T2, GIP receptor (Homo sapiens, UniProt P48546); assay: cAMP synthesis functional assay (firefly luciferase reporter in HEK293 cells), GIP receptor; conditions: Table 1; for GIP Receptor relative activity: relative to the native hormone of the indicated receptor
T2 construct: expressed in transfected cells; host or cells: HEK293
T2 sequence (P48546 22-466): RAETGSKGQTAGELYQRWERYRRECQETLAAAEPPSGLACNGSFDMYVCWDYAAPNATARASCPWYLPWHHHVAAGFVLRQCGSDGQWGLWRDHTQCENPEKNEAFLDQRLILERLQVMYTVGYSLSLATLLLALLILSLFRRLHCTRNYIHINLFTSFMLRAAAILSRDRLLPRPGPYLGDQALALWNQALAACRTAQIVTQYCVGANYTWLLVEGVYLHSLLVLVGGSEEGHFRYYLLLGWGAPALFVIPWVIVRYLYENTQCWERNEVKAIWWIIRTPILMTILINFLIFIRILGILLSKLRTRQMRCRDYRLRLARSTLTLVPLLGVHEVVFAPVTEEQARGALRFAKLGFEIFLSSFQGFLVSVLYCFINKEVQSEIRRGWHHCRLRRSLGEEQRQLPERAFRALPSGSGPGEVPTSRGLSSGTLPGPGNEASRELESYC

GLP-1 receptor = target: T3, GLP-1 receptor (Homo sapiens, UniProt P43220); assay: cAMP synthesis functional assay (firefly luciferase reporter in HEK293 cells), GLP-1 receptor; conditions: Table 1; for GLP-1 Receptor relative activity: relative to the native hormone of the indicated receptor
T3 construct: expressed in transfected cells; host or cells: HEK293
T3 sequence (P43220 24-463, species assumed): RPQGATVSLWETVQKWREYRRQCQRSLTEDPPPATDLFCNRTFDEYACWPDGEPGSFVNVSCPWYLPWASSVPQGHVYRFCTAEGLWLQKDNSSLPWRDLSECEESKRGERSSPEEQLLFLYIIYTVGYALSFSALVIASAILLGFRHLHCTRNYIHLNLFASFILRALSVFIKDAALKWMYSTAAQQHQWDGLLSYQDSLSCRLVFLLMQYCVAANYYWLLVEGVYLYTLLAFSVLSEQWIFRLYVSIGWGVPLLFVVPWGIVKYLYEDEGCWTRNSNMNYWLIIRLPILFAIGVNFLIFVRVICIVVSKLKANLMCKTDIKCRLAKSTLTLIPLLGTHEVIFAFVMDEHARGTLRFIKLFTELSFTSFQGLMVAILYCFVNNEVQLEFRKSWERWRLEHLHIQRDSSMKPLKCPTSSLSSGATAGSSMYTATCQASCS

EC50 (GLP-1 receptor; GLP-1 Receptor EC50, nM) | EC50 (GIP receptor; GIP Receptor EC50, nM) | SMILES | Glucagon Receptor relative activity (glucagon receptor) | GIP Receptor relative activity (GIP receptor) | GLP-1 Receptor relative activity (GLP-1 receptor) | EC50 (glucagon receptor)
 |  | CC[C@H](C)[C@H](NC(=O)[C@H](Cc1ccccc1)NC(=O)[C@H](CC(=O)O)NC(=O)[C@@H]1CCCCNC(=O)CC[C@H](NC(=O)[C@H](CC(=O)O)NC(=O)[C@H](CC(C)C)NC(=O)[C@H](Cc2ccc(O)cc2)NC(=O)[C@H](CCCCN)NC(=O)[C@H](CO)NC(=O)[C@H](Cc2ccc(O)cc2)NC(=O)[C@H](CC(=O)O)NC(=O)[C@H](CO)NC(=O)[C@@H](NC(=O)[C@H](Cc2ccccc2)NC(=O)[C@@H](NC(=O)CNC(=O)[C@H](CCC(N)=O)NC(=O)[C@H](CO)NC(=O)[C@@H](N)Cc2ccc(O)cc2)[C@@H](C)O)[C@@H](C)O)C(=O)N[C@@H]([C@@H](C)CC)C(=O)N[C@@H](Cc2c[nH]cn2)C(=O)N[C@@H](CCC(N)=O)C(=O)N1)C(=O)N[C@@H](C)C(=O)N[C@@H](Cc1c[nH]c2ccccc12)C(=O)N[C@@H](CC(C)C)C(=O)N[C@@H](CCSC)C(=O)N[C@@H](CC(N)=O)C(=O)NCC(=O)NCC(=O)N1CCC[C@H]1C(=O)N[C@@H](CO)C(=O)N[C@@H](CO)C(=O)NCC(=O)N[C@@H](C)C(=O)N1CCC[C@H]1C(=O)N1CCC[C@H]1C(=O)N1CCC[C@H]1C(=O)N[C@@H](CO)C(N)=O [mt-129] (H-YSQGTFTSDYSKYLDEIHQKDFIAWLMNGGPSSGAPPPS-NH2; lactam 16-20; N-terminus assumed) | 17.34% | 2.06% | 1.12% | 
 |  | CC[C@H](C)[C@H](NC(=O)[C@H](CO)NC(=O)[C@H](Cc1ccc(O)cc1)NC(=O)[C@H](CC(=O)O)NC(=O)[C@H](CO)NC(=O)[C@@H](NC(=O)[C@H](Cc1ccccc1)NC(=O)[C@@H](NC(=O)CNC(=O)[C@H](CCC(N)=O)NC(=O)[C@H](CO)NC(=O)[C@@H](N)Cc1ccc(O)cc1)[C@@H](C)O)[C@@H](C)O)C(=O)N[C@@H](Cc1ccc(O)cc1)C(=O)N[C@@H](CC(C)C)C(=O)N[C@@H](CC(=O)O)C(=O)N[C@@H](CCC(=O)O)C(=O)N[C@@H](CCC(N)=O)C(=O)N[C@H]1CCCCNC(=O)CC[C@@H](C(=O)N[C@@H](Cc2ccccc2)C(=O)N[C@H](C(=O)N[C@@H](CC(N)=O)C(=O)N[C@@H](Cc2c[nH]c3ccccc23)C(=O)N[C@@H](CC(C)C)C(=O)N[C@@H](CC(C)C)C(=O)N[C@@H](C)C(=O)NCC(=O)NCC(=O)N2CCC[C@H]2C(=O)N[C@@H](CO)C(=O)N[C@@H](CO)C(=O)NCC(=O)N[C@@H](C)C(=O)N2CCC[C@H]2C(=O)N2CCC[C@H]2C(=O)N2CCC[C@H]2C(=O)N[C@@H](CO)C(N)=O)C(C)C)NC(=O)[C@H](CCCCN)NC(=O)[C@H](C)NC1=O [mt-168] (H-YSQGTFTSDYSIYLDEQKAKEFVNWLLAGGPSSGAPPPS-NH2; lactam 18-21; N-terminus assumed) | 4.79% | 0.32% | 1.45% | 2.61 nM
 |  | CC(C)C[C@H](NC(=O)[C@H](CC(C)C)NC(=O)[C@H](Cc1c[nH]c2ccccc12)NC(=O)[C@H](CC(N)=O)NC(=O)[C@@H](NC(=O)[C@H](Cc1ccccc1)NC(=O)[C@H](CCC(=O)O)NC(=O)[C@@H]1CCCCNC(=O)CC[C@H](NC(=O)[C@H](CC(=O)O)NC(=O)[C@H](CC(C)C)NC(=O)[C@H](Cc2ccc(O)cc2)NC(=O)[C@@H]2CCCCNC(=O)CC[C@H](NC(=O)[C@H](CO)NC(=O)[C@@H](NC(=O)[C@H](Cc3ccccc3)NC(=O)[C@@H](NC(=O)CNC(=O)[C@H](CCC(N)=O)NC(=O)C(C)(C)NC(=O)[C@@H](N)Cc3ccc(O)cc3)[C@@H](C)O)[C@@H](C)O)C(=O)N[C@@H](Cc3ccc(O)cc3)C(=O)N[C@@H](CO)C(=O)N2)C(=O)N[C@@H](CCC(N)=O)C(=O)N[C@@H](C)C(=O)N[C@@H](C)C(=O)N1)C(C)C)C(=O)N[C@@H](C)C(=O)NCC(=O)NCC(=O)N1CCC[C@H]1C(=O)N[C@@H](CO)C(=O)N[C@@H](CO)C(=O)NCC(=O)N[C@@H](C)C(=O)N1CCC[C@H]1C(=O)N1CCC[C@H]1C(=O)N1CCC[C@H]1C(=O)N[C@@H](CO)C(=O)N[C@@H](CS)C(N)=O [mt-209] (H-Y[Aib]QGTFTSEYSKYLDEQAAKEFVNWLLAGGPSSGAPPPSC-NH2; lactam 9-12, 16-20; N-terminus assumed) | 0.90% | 1.42% | 1.33% | 
0.04 nM |  | CC[C@H](C)[C@H](NC(=O)[C@H](CO)NC(=O)[C@H](Cc1ccc(O)cc1)NC(=O)[C@H](CC(=O)O)NC(=O)[C@H](CO)NC(=O)[C@@H](NC(=O)[C@H](Cc1ccccc1)NC(=O)[C@@H](NC(=O)CNC(=O)[C@H](CCC(N)=O)NC(=O)[C@H](CO)NC(=O)[C@@H](N)Cc1c[nH]cn1)[C@@H](C)O)[C@@H](C)O)C(=O)N[C@@H](Cc1ccc(O)cc1)C(=O)N[C@@H](CCSC)C(=O)N[C@@H](CC(=O)O)C(=O)N[C@H]1CCC(=O)NCCCC[C@@H](C(=O)N[C@@H](CC(=O)O)C(=O)N[C@@H](Cc2ccccc2)C(=O)N[C@H](C(=O)N[C@@H](CC(N)=O)C(=O)N[C@@H](Cc2c[nH]c3ccccc23)C(=O)N[C@@H](CC(C)C)C(=O)N[C@@H](CC(C)C)C(=O)N[C@@H](C)C(=O)N[C@@H](CCC(N)=O)C(N)=O)C(C)C)NC(=O)[C@H](CCC(N)=O)NC(=O)[C@H](Cc2c[nH]cn2)NC(=O)[C@H]([C@@H](C)CC)NC1=O [mt-124] (H-HSQGTFTSDYSIYMDEIHQKDFVNWLLAQ-NH2; lactam 16-20; N-terminus assumed) | 8.64% | 0.95% | 100.00% | 
 |  | CC[C@H](C)[C@H](NC(=O)[C@H](CO)NC(=O)[C@H](Cc1ccc(O)cc1)NC(=O)[C@H](CC(=O)O)NC(=O)[C@H](CO)NC(=O)[C@@H](NC(=O)[C@H](Cc1ccccc1)NC(=O)[C@@H](NC(=O)CNC(=O)[C@H](CCC(N)=O)NC(=O)[C@H](CO)NC(=O)[C@@H](N)Cc1ccc(O)cc1)[C@@H](C)O)[C@@H](C)O)C(=O)N[C@@H](Cc1ccc(O)cc1)C(=O)N[C@@H](CCSC)C(=O)N[C@@H](CC(=O)O)C(=O)N[C@H]1CCC(=O)NCCCC[C@@H](C(=O)N[C@@H](CC(=O)O)C(=O)N[C@@H](Cc2ccccc2)C(=O)N[C@H](C(=O)N[C@@H](CC(N)=O)C(=O)N[C@@H](Cc2c[nH]c3ccccc23)C(=O)N[C@@H](CC(C)C)C(=O)N[C@@H](CC(C)C)C(=O)N[C@@H](C)C(=O)N[C@@H](CCC(N)=O)C(N)=O)C(C)C)NC(=O)[C@H](CCC(N)=O)NC(=O)[C@H](Cc2c[nH]cn2)NC(=O)[C@H]([C@@H](C)CC)NC1=O [mt-125] (H-YSQGTFTSDYSIYMDEIHQKDFVNWLLAQ-NH2; lactam 16-20; N-terminus assumed) | 9.06% | 19.64% | 3.17% | 
 |  | CC[C@H](C)[C@H](NC(=O)[C@H](CO)NC(=O)[C@H](Cc1ccc(O)cc1)NC(=O)[C@H](CC(=O)O)NC(=O)[C@H](CO)NC(=O)[C@@H](NC(=O)[C@H](Cc1ccccc1)NC(=O)[C@@H](NC(=O)CNC(=O)[C@H](CCC(N)=O)NC(=O)[C@H](CO)NC(=O)[C@@H](N)Cc1ccc(O)cc1)[C@@H](C)O)[C@@H](C)CC)C(=O)N[C@@H](Cc1ccc(O)cc1)C(=O)N[C@@H](CC(C)C)C(=O)N[C@@H](CC(=O)O)C(=O)N[C@H]1CCC(=O)NCCCC[C@@H](C(=O)N[C@@H](CCC(=O)O)C(=O)N[C@@H](Cc2ccccc2)C(=O)N[C@H](C(=O)N[C@@H](CC(N)=O)C(=O)N[C@@H](Cc2c[nH]c3ccccc23)C(=O)N[C@@H](CC(C)C)C(=O)N[C@@H](CC(C)C)C(=O)N[C@@H](C)C(=O)NCC(=O)NCC(=O)N2CCC[C@H]2C(=O)N[C@@H](CO)C(=O)N[C@@H](CO)C(=O)NCC(=O)N[C@@H](C)C(=O)N2CCC[C@H]2C(=O)N2CCC[C@H]2C(=O)N2CCC[C@H]2C(=O)N[C@@H](CO)C(N)=O)C(C)C)NC(=O)[C@H](C)NC(=O)[C@H](C)NC(=O)[C@H](CCC(N)=O)NC1=O [mt-150] (H-YSQGTFISDYSIYLDEQAAKEFVNWLLAGGPSSGAPPPS-NH2; lactam 16-20; N-terminus assumed) | 316.67% | 26.72% | 1.09% | 
 | 14.6 nM | CC[C@H](C)[C@H](NC(=O)[C@H](Cc1ccccc1)NC(=O)[C@H](CCC(=O)O)NC(=O)[C@@H]1CCC(=O)NCCCC[C@H](NC(=O)[C@H](CC(=O)O)NC(=O)[C@H](CC(C)C)NC(=O)[C@H](Cc2ccc(O)cc2)NC(=O)[C@H](CCCCN)NC(=O)[C@H](CO)NC(=O)[C@H](Cc2ccc(O)cc2)NC(=O)[C@H](CC(=O)O)NC(=O)[C@H](CO)NC(=O)[C@@H](NC(=O)[C@H](Cc2ccccc2)NC(=O)[C@@H](NC(=O)CNC(=O)[C@H](CCC(N)=O)NC(=O)[C@H](CO)NC(=O)[C@@H](N)Cc2c[nH]cn2)[C@@H](C)O)[C@@H](C)O)C(=O)N[C@@H]([C@@H](C)CC)C(=O)N[C@@H](Cc2c[nH]cn2)C(=O)N[C@@H](CCC(N)=O)C(=O)N1)C(=O)N[C@@H](C)C(=O)N[C@@H](Cc1c[nH]c2ccccc12)C(=O)N[C@@H](CC(C)C)C(=O)N[C@@H](CCSC)C(=O)N[C@@H](CC(N)=O)C(=O)N[C@H](C(N)=O)[C@@H](C)O [mt-69] (H-HSQGTFTSDYSKYLDKIHQEEFIAWLMNT-NH2; lactam 16-20; N-terminus assumed) | 162.50% | 0.57% | 12.20% | 0.16 nM

— patent publication US9062124B2, “GIP-based mixed agonists for treatment of metabolic disorders and obesity” (priority 2008, dated 2015)
